Drawing on patent publication US20240270821A1, “GIP/GLP1/GCG TRI-RECEPTOR AGONISTS AND USES THEREOF” (priority 2023, published 2024), this text covers EC50 for 17 compounds.

What all share (type): cell-based
Experiment [1] addresses human GcgR (Homo sapiens, UniProt P47871). Briefly: Functional cAMP activity in the presence of 1% HSA. As to conditions: read-out: cAMP Rel EC50, hGcgR.
For experiment [2], the target named is T1, hGIPR (Homo sapiens, UniProt P48546).
T1 sequence (P48546 22-466): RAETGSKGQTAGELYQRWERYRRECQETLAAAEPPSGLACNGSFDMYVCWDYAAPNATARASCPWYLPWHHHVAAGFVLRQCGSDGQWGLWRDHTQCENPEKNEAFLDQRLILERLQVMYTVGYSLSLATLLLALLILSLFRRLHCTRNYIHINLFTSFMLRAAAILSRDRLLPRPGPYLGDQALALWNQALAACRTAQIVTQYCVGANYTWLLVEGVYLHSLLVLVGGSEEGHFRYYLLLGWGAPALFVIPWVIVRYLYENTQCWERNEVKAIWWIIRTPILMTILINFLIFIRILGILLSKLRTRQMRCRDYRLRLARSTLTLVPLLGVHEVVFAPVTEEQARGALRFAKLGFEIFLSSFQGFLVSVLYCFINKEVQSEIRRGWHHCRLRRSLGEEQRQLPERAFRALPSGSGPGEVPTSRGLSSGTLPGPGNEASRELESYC
Description: Functional cAMP activity in the presence of 1% HSA. As to conditions: read-out: cAMP Rel EC50, hGIPR.

Experiment [3] addresses T1, hGIPR. Briefly: Functional cAMP activation in the presence of 0.1% casein (no HSA). The note with it: read-out: Relative cAMP EC50, hGIPR.
Experiment [4] has as its target T2, hGLP-1R (Homo sapiens, UniProt P43220). The description is as above. As to conditions: read-out: Relative cAMP EC50, hGLP-1R.
In experiment [5] the target is T2, hGLP-1R. Briefly: Functional cAMP activity in the presence of 1% HSA. As to conditions: read-out: cAMP Rel EC50, hGLP-1R.
Experiment [6] has as its target hGcgR (Homo sapiens, UniProt P47871). Description: Functional cAMP activation in the presence of 0.1% casein (no HSA). The note with it: read-out: Relative cAMP EC50, hGcgR.
The mark [7] stands for this setting: 0.1% casein, no HSA, geometric mean.
Setting [8] is: in the presence of 0.1% casein (no HSA), geometric mean.
Setting [9] is: HEK-293 clonal cell line, in the presence of 1% HSA, geometric mean of relative EC50.

As usually defined, the EC50 is the midpoint of the concentration-response curve.

Like-named read-outs stand apart in the source and are kept apart here. Starred links: 1 amine or outer side, 2 acyl side, 3 side chain; linkers in the order of their positions; H or OH if unused. Non-standard residues stand in square brackets, D forms with d. Groups on a side chain read outwards from the residue. No end group written: not given here. *: point of attachment. C20 diacid = O=C(O)CCCCCCCCCCCCCCCCCCC(=O)*; C18 diacid = O=C(O)CCCCCCCCCCCCCCCCC(=O)*; αMePhe(2-F) = C[C@](N)(Cc1ccccc1F)C(=O)O; γGlu = O=C(O)[C@H](CCC(=O)[*:2])N[*:1]; αMe4Pal = C[C@](N)(Cc1ccncc1)C(=O)O; αMeY = C[C@](N)(Cc1ccc(O)cc1)C(=O)O; 4Pal = N[C@@H](Cc1ccncc1)C(=O)O; αMeL = CC(C)C[C@](C)(N)C(=O)O; αMeS = C[C@](N)(CO)C(=O)O; Orn = NCCC[C@H](N)C(=O)O; Dap = NC[C@H](N)C(=O)O; AEEA = NCCOCCOCC(=O)O; Aib = CC(C)(N)C(=O)O
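Wherever Relative cAMP EC50, hGIPR is given: intracellular cAMP rise after 30 min at 37 °C read by HTRF against a standard curve, scaled between buffer alone (0%) and top control ligand concentration (100%), four-parameter fit.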
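Wherever Relative cAMP EC50, hGLP-1R is given: intracellular cAMP rise after 30 min at 37 °C read by HTRF, normalized between buffer only (0%) and maximal control ligand (100%), four-parameter variable-slope fit.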
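Wherever Relative cAMP EC50, hGcgR is given: intracellular cAMP rise after 30 min at 37 °C, read by HTRF against a cAMP standard curve, scaled from buffer only (0%) to maximal control ligand response (100%).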

T2 sequence (P43220 24-463): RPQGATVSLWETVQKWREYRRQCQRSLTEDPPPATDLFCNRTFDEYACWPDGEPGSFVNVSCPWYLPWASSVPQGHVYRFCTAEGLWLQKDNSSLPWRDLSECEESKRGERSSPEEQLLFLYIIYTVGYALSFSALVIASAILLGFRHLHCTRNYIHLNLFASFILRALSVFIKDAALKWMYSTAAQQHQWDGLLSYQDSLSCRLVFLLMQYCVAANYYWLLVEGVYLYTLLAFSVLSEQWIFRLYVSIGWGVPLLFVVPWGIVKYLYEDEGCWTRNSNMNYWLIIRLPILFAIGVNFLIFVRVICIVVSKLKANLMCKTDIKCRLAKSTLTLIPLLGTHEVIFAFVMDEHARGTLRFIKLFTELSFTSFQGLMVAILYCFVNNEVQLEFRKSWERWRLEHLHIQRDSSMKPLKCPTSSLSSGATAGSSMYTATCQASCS
human GcgR, sequence (P47871 26-477): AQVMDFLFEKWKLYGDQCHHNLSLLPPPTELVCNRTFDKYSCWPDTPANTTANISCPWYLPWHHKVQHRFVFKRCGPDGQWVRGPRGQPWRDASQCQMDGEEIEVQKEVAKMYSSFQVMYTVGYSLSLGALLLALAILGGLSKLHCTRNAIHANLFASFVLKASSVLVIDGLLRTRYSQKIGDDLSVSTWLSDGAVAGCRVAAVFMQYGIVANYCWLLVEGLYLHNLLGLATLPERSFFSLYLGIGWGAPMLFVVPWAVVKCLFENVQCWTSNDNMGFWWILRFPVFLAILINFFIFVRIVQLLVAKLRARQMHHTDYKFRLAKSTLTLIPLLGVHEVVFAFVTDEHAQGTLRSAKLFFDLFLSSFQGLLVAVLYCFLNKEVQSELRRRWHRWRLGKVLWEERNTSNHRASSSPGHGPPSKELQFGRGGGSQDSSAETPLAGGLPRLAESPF
hGcgR, sequence (P47871 26-477): as above

Take “H-Y[Aib]QGT[αMePhe(2-F)]TSD[4Pal][αMeS]I[αMeL]LD[Orn]K([AEEA-γGlu-C18 diacid])AQ[αMe4Pal]EFI[dE][αMeY]LIEGGPPS[Aib]EPPPSGGGE-NH2 [Example 1201]”: the EC50 came out at 234 nM in experiment [1]; 1.02 nM in experiment [2]; 0.00959 nM in experiment [3] (setting [7]); 0.888 nM in experiment [4] (setting [7]); 93.9 nM in experiment [5]; 1.76 nM in experiment [6] (setting [7]).
Regarding “H-Y[Aib]QGTFTSD[4Pal]SQ[αMeL]LDKK([AEEA-γGlu-C18 diacid])AQ[αMe4Pal]AFIE[αMeY]LIEGGPSSGAPPPSGS-NH2 [Example 844]”, the EC50 came to 583 nM in experiment [1]; 43.3 nM in experiment [2]; 0.27 nM in experiment [3] (setting [8]); 0.61 nM in experiment [4] (setting [8]); 151 nM in experiment [5]; 2.83 nM in experiment [6] (setting [8]).
“H-Y[Aib]QGT[αMePhe(2-F)]TSD[4Pal]SI[αMeL]LDKK([γGlu-γGlu-C18 diacid])AQ[Aib]AFIEYLEEGGPSSGAPPPSGTGE-NH2 [Example 622]”: the EC50 in experiment [1] was 641 nM; in experiment [2], 1.19 nM; in experiment [3], 0.0148 nM; in experiment [4], 0.776 nM; in experiment [5], 52.3 nM; in experiment [6] it was 7.7 nM.
As for “Y[Aib]QGTFTSDFSK[αMeL]LDKK([AEEA-γGlu-C20 diacid])AQ[Aib]AFIEYLLEGGPSSGEPPPTEG-NH2 [Example 36]”, the EC50 stood at 1330 nM in experiment [1]; 170 nM in experiment [2]; 0.482 nM in experiment [3] (setting [8]); 3.57 nM in experiment [4] (setting [8]); 1360 nM in experiment [5]; 4.32 nM in experiment [6] (setting [8]).
Consider “H-Y[Aib]Q[dA]T[αMePhe(2-F)]TSD[4Pal][αMeS]I[αMeL]LD[Orn]K([AEEA-γGlu-C18 diacid])AQ[Aib]EFI[dE][αMeY]LIEGGPSSGAPPPSGGGE-NH2 [Example 1223]”, for which the EC50 in experiment [1] turned out to be 472 nM; in experiment [2], 9.25 nM; in experiment [3] (setting [7]), 0.0916 nM; in experiment [4] (setting [7]), 0.337 nM; in experiment [5] it was 40.7 nM; in experiment [6] (setting [7]), 2.61 nM.
Take “Y[Aib]QGTFTSD[4Pal]SQ[αMeL]LDKK([dE-γGlu-C18 diacid])AQ[αMe4Pal]AFIEYLIAGGPSSGAPPPSGEEE-NH2 [Example 1088]”: the EC50 is 1710 nM in experiment [1]; 15.6 nM in experiment [2]; 0.182 nM in experiment [3] (setting [8]); 2.99 nM in experiment [4] (setting [8]); 367 nM in experiment [5]; 14.8 nM in experiment [6] (setting [8]).
Take “H-Y[Aib]QGTFTSDFS[Orn][αMeL]LDKK([AEEA-γGlu-C20 diacid])AQ[Aib]AFIEYLLE[Aib]GPSSGAPPPSEG-NH2 [Example 61]”: the EC50 in experiment [1] was 1310 nM; in experiment [2] it was 55.2 nM; in experiment [3] (setting [8]), 0.122 nM; in experiment [4] (setting [8]) it was 2.05 nM; in experiment [5] it was 704 nM; in experiment [6] (setting [8]), 3.57 nM.
As for `CC[C@H](C)[C@H](NC(=O)[C@H](Cc1ccccc1)NC(=O)[C@H](C)NC(=O)[C@](C)(Cc1ccncc1)NC(=O)[C@H](CCC(N)=O)NC(=O)[C@H](C)NC(=O)[C@H](CCCCNC(=O)CC[C@H](NC(=O)CC[C@H](NC(=O)CCCCCCCCCCCCCCCCC(=O)O)C(=O)O)C(=O)O)NC(=O)[C@H](CCCN)NC(=O)[C@H](CC(=O)O)NC(=O)[C@H](CC(C)C)NC(=O)[C@](C)(CC(C)C)NC(=O)[C@H](CCC(N)=O)NC(=O)[C@H](CO)NC(=O)[C@H](Cc1ccncc1)NC(=O)[C@H](CC(=O)O)NC(=O)[C@H](CO)NC(=O)[C@@H](NC(=O)[C@H](Cc1ccccc1)NC(=O)[C@@H](NC(=O)CNC(=O)[C@H](CCC(N)=O)NC(=O)C(C)(C)NC(=O)[C@@H](N)Cc1ccc(O)cc1)[C@@H](C)O)[C@@H](C)O)C(=O)N[C@@H](CCC(=O)O)C(=O)N[C@@H](Cc1ccc(O)cc1)C(=O)N[C@@H](CC(C)C)C(=O)N[C@H](C(=O)N[C@@H](CCC(=O)O)C(=O)N[C@H](C)C(=O)NCC(=O)N1CCC[C@H]1C(=O)N[C@@H](CO)C(=O)N[C@@H](CO)C(=O)NCC(=O)N[C@@H](C)C(=O)N1CCC[C@H]1C(=O)N1CCC[C@H]1C(=O)N1CCC[C@H]1C(=O)N[C@@H](CO)C(=O)NCC(=O)N[C@@H](CO)C(=O)N[C@@H](CCC(=O)O)C(N)=O)[C@@H](C)CC` [Example 1023], the EC50 in experiment [1] was determined as 856 nM; in experiment [2] it was 26 nM; in experiment [3] (setting [8]) it was 0.235 nM; in experiment [4] (setting [8]), 1.47 nM; in experiment [5], 230 nM; in experiment [6] (setting [8]), 3.82 nM.
“H-Y[Aib]QGTFTSD[4Pal]SQ[αMeL]LDKK([γGlu-γGlu-C18 diacid])AQ[αMe4Pal]AFIEYLIE[Aib]GPSSGAPPPSGTGE-NH2 [Example 1127]”: the EC50 is 425 nM in experiment [1] (setting [9]); 7.72 nM in experiment [2] (setting [9]); 0.167 nM in experiment [3] (setting [8]); 6.16 nM in experiment [4] (setting [8]); 234 nM in experiment [5] (setting [9]); 5.95 nM in experiment [6] (setting [8]).
Consider “H-Y[Aib]QGTFTSD[4Pal]SQ[αMeL]LDKK([AEEA-γGlu-C18 diacid])AQ[αMe4Pal]AFIEYLIE[Aib]GPSSGAPPPSGSEE-NH2 [Example 897]”, for which the EC50 was determined as 658 nM in experiment [1]; 25.9 nM in experiment [2]; 0.157 nM in experiment [3] (setting [8]); 3.29 nM in experiment [4] (setting [8]); 557 nM in experiment [5]; 3.62 nM in experiment [6] (setting [8]).
For the compound “Y[Aib]QGT[αMePhe(2-F)]TSD[4Pal]SI[αMeL]LD[Orn]K([AEEA-γGlu-C18 diacid])AQ[αMe4Pal][Orn]FI[dE][αMeY]LIEGGPSSGEPPPEGTE-NH2 [Example 679]”, the EC50 amounted to 188 nM in experiment [1]; 1.02 nM in experiment [2]; 0.0123 nM in experiment [3]; 0.255 nM in experiment [4]; 21.6 nM in experiment [5]; 3.22 nM in experiment [6].
For “H-Y[Aib]QGTFTSDFS[Dap][αMeL]LDKK([γGlu-γGlu-C18 diacid])AQ[Aib]AFIEYLLE[Aib]GPSSGAPPPSGS-NH2 [Example 203]”, the EC50 in experiment [1] was determined as 1160 nM; in experiment [2], 19 nM; in experiment [3] (setting [8]), 0.125 nM; in experiment [4] (setting [8]) it was 4.72 nM; in experiment [5] it was 532 nM; in experiment [6] (setting [8]), 6.92 nM.
Turning to “H-Y[Aib]QGTFTSD[4Pal]SQ[αMeL]LD[Orn]K([γGlu-γGlu-C18 diacid])AQ[αMe4Pal]AFIE[αMeY]LIA[Aib]GPSSGAPPPSGSEE-NH2 [Example 1107]”, the EC50 came out at 864 nM in experiment [1]; 5.29 nM in experiment [2]; 0.0447 nM in experiment [3] (setting [8]); 0.51 nM in experiment [4] (setting [8]); 59 nM in experiment [5]; 5.66 nM in experiment [6] (setting [8]).
For “Y[Aib]QGTFTSDFSK[αMeL]LDKK([AEEA-γGlu-C20 diacid])AQ[Aib]AFIQWLLEGGPSSGAPPPSEG-NH2 [Example 39]”, the EC50 was determined as 1090 nM in experiment [1]; 30.5 nM in experiment [2]; 0.299 nM in experiment [3] (setting [8]); 2.13 nM in experiment [4] (setting [8]); 260 nM in experiment [5]; 10.1 nM in experiment [6] (setting [8]).
On to “H-Y[Aib]QGTFTSD[4Pal]SQ[αMeL]LDKK([AEEA-γGlu-C18 diacid])AQ[αMe4Pal]AFIEWLIEGGPSSGAPPPSGS-NH2 [Example 830]”, for which the EC50 in experiment [1] was 809 nM; in experiment [2] it was 44.8 nM; in experiment [3] (setting [8]) it was 0.132 nM; in experiment [4] (setting [8]) it was 0.791 nM; in experiment [5], 180 nM; in experiment [6] (setting [8]), 3.21 nM.
For “H-Y[Aib]QGT[αMePhe(2-F)]TSD[4Pal][αMeS]ILLD[Orn]K([γGlu-γGlu-C18 diacid])AQ[Aib][Orn]FI[dE][αMeY]LQEGGPSSGEPPPSGAEE-NH2 [Example 575]”, the EC50 in experiment [1] turned out to be 484 nM; in experiment [2], 16.2 nM; in experiment [3], 0.321 nM; in experiment [4], 0.438 nM; in experiment [5], 37.1 nM; in experiment [6], 3.69 nM.
Take “H-Y[Aib]QGTFTSD[4Pal]S[Orn][αMeL]LDKK([γGlu-γGlu-C18 diacid])AQ[Aib]AFIE[αMeY]LIEGGPSSGAPPPSGS-NH2 [Example 941]”: the EC50 in experiment [1] was 1430 nM; in experiment [2], 22.1 nM; in experiment [3] (setting [8]), 0.183 nM; in experiment [4] (setting [8]), 0.764 nM; in experiment [5], 113 nM; in experiment [6] (setting [8]) it was 11.7 nM.
